Reference: article PMC9276943 (Molecular Plant Pathology, 2022)

Biological target: T1, truncated CsrD, EAL domain only (E. amylovora Ea1189) (Erwinia amylovora, UniProt A0ABX7MI01)
T1 sequence (A0ABX7MI01 403-633): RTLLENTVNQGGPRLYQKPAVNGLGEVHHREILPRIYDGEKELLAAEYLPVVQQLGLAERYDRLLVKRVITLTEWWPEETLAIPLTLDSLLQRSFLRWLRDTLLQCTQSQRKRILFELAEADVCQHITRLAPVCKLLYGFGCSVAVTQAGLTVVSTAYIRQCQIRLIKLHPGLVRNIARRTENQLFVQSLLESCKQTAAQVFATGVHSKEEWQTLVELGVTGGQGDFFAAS
Experiment: streptavidin pull-down with anti-His immunoblot
Format: binding
Conditions: labelled compound (biotinylated c-di-GMP, 100 µM); 1.7 µM protein

Nc1nc2c(ncn2[C@@H]2O[C@@H]3COP(=O)(O)O[C@H]4[C@@H](O)[C@H](n5cnc6c(=O)[nH]c(N)nc65)O[C@@H]4COP(=O)(O)O[C@H]3[C@H]2O)c(=O)[nH]1 [c-di-GMP]
streptavidin pull-down with anti-His immunoblot: truncated version of CsrD that consisted of only the WT EAL domain exhibited binding
